Test results: patent US6352980B1, “Estrenes for inducting hypothalamic effects” (Pherin Pharmaceuticals, Inc., priority 1991, dated 2002)
Entries after “also recorded” stand apart in the source; their conditions may differ.

Experiments:
Type in all cases: in vivo, human
VNO [1] = experiment: Electro-vomeronasogram (EVG) (Example 57); details: for EVG response in female subjects: 30 female subjects (ages 20-45), FIG. 6B; for EVG response in the male VNO: male subjects, FIG. 6A and FIG. 7; for EVG response to olfactants delivered to the VNO: male and female subjects, 400 fmoles, FIG. 7B; for organ response (EVG data): additional tests on 13 estranes
Experimental: The following electrophysiological studies were performed in 60 clinically normal human volunteers of both sexes (30 male and 30 female) whose ages ranged from 20 to 45 years. No anesthetics were used, and female subjects were excluded if pregnant.
(§1) The stimulation and recording system consists of a “multifunctional miniprobe” described elsewhere (Monti-Bloch, L. and Grosser, B. l. (1991) “Effect of putative pheromones on the electrical activity of the human vomeronasal organ and olfactory epithelium,” J. Steroid Biochem. Molec. Biol. 39:573-582.). The recording electrode is a 0.3 mm silver ball attached to a small (0.1 mm) silver wire insulated with Teflon© the surface of the electrode is first treated to produce a silver chloride interface, and is then covered with gelatin It is positioned within a small caliber Teflon© catheter (dia=5 mm) such that the tip of the electrode protrudes approximately 2 mm. The Teflon© catheter is 10 cm in length and constitutes the terminal extension for a multichannel delivery system which delivers a continuous air stream carrying discreet pulses of chemosensory stimuli. The air stream first passes into a small chamber and is bubbled through a solution containing either a vomeropherin or an olfactant in a diluent or the diluent alone. A solenoid is used to rapidly redirect the air stream from the chamber to a route which bypasses the chamber. This creates a discreet pulse of stimulant in the air stream. A second, outer Teflon® tube with a diameter of 2 mm surrounds the catheter-electrode assemblage, and its central end is connected to an aspirator that provides continuous suction of 3 ml/s. This concentric arrangement of the outer suction tube allows the emitted chemosensory stimuli to be localized to an area we call a “minifield” (approx. dia=1 mm), and it avoids diffusion of substances either to the area outside the intended stimulation site or into the respiratory system. The entire stimulating and recording assemblage may be positioned either on the neurosensory epithelium within the VNO, or on the surface of the olfactory or respiratory epithelium.
Electro-vomeronasogram (EVG): Recordings are carried out in a quiet room with the subject supine; the multi-functional miniprobe is initially stabilized within the nasal cavity using a nasal retractor placed in the vestibule. Reference and ground electrodes consist of silver discs (8 mm), both of which are positioned on the glabella.
The entrance to the VNO, or vomeronasal pit, is identified by first dilating the nasal aperture and vestibule. A 6× magnifying binocular loupe with halogen illumination is then used to introduce the tip of the Teflon® catheter and recording electrode assemblage into the VNO opening where it is stabilized at an approximate depth of 1 mm within the vomeronasal passage. Optimal placement of the recording electrode is signaled after testing for an adequate depolarization in response to a test substance.
Electrical signals from the recording electrode are fed to a DC amplifier after which they are digitized, computer monitored, and stored. The peak-to-peak amplitude of the signals is measured, and the area under the depolarization wave is integrated, while continuously monitoring the signal both on the computer screen and on a digital oscilloscope. Artifacts produced by respiratory movements are deleted by training the subjects to practice mouth breathing with velopharyngeal closure.
(§2) Chemosensory Stimulants: Olfactory test substances are cineole, and 1-carvone; vomeropherins are A, B, C, E and F. (Vomeropherins were supplied by Pherin Corporation, Menlo Park, Calif.), Samples of vomeropherins In. concentration of 25-800 fmoles are delivered in the continuous air stream for durations from 300 milliseconds to 1 second. Usually, intervals of 3 to 5 minutes separated each series of short test pulses. […]

VNO [2] = experiment: Skin temperature (ST) on vomeropherin stimulation of the VNO
Experimental: (§3) Cortical evoked activity was induced by VNO stimulation with vomeropherins, and olfactory stimulation with odorants delivered in 300 ms air pulses. It was recorded using standard electroencephalographic (EEG) electrodes placed at positions Cz-A1 and Tz-A1 of the international […] system; the ground electrode was placed on the mastoid process. Electrodermal activity (EDA) was recorded using standard 8 mm silver electrodes in contact with palmar skin of the medial and ring fingers, respeCtively, through a conductive gel interface. Skin temperature (ST) was recorded by a small (1.0 mm) thermistor probe placed in the right ear lobe. Peripheral arterial pulse (PAP) was monitored with a plethysmograph attached to the tip of the index finger. Respiratory frequency (RF) was measured with an adjustable strain gauge placed around the lower thorax. All electrical signals were DC amplified, digitized (MP-100, Biopac Systems) and continuously monitored utilizing a computer.
(§4) Statistical Analysis: EVGs or EOGS, peak-to-peak changes and frequency changes of other parameters were measured and statistically analyzed. The significance of the results was determined by either using paired t-tests or analysis of variance (ANOVA).
In female subjects vomeropherins produced changes in EDA and ST with a greater standard deviation than in males.

VNO [3] = experiment: Electrodermal activity (EDA) on vomeropherin stimulation of the VNO; details: n=30, p<0.01; for electrodermal activity (EDA): female subjects
Experimental: as §3, §4
Reflex Effects of Vomeropherins: Studies were conducted to determine the central nervous system (CNS) reflex responses to vomeropherin stimulation of the VNO. The sexually dimorphic local responses induced by vomeropherins (FIGS. 6A and B) were mirrored in the autonomic response of male & female subjects. […] In female subjects.

VNO [4] = experiment: Cortical activity (EEG) on VNO stimulation with vomeropherins; details: for EEG-alpha activity / EEG-beta activity: additional tests on 13 estranes of Chart 1
Experimental: as §3, §4
[…] […] Synchronization of the EEG was sustained for 1.5 to 2.7 minutes after application of a single pulse of active substance.

[5] = test system: olfactory epithelium (OE); experiment: Electro-olfactgram (EOG) (Example 57); details: 20 subjects (10 males, 10 females); 200 fmoles vomeropherins, 400 fmoles olfactants; one second pulses; FIG. 7A
Text: as §1, §2, §4
Effects of Vomeropherins on the EOG: The summated receptor potential from the olfactory epithelium (OE) was recorded in 20 subjects: 10 males and 10 females. […]

VNO [6] = experiment: Autonomic responses to Estrene stimulation of the VNO (Example 54); details: 40 male subjects, 1 second pulse
Experimental: Various autonomic parameters were monitored while 1,3,5(10),16-Estratetraen-3-yl-acetate was administered to 40 male subjects using the procedure described in Example 20. Propylene glycol was also administered as a control. The ligand was administered as a 1 second pulse. The change in autonomic function was first noted within 2 seconds and lasted for up to 45 seconds.

[7] = 30 female subjects, p<0.01 compared to A and C, FIG. 6H
[8] = females, single pulse 200 fmoles, FIG. 6F

## C[C@@]12C=CC[C@H]1[C@@H]1CCC3=C[C@@H](O)CC[C@]3(C)[C@H]1CC2 [F, Androsta-4,16-dien-3β-ol, reference compound]
VNO [1]; 100 fmoles
  EVG response in female subjects: produced the most significant differences within the group
  EVG response in the male VNO: significantly reduced responses
VNO [2]; [7]
  skin temperature (ST): significant increase in skin temperature
VNO [3]
  electrodermal activity (EDA): greater decrease in EDA than A or C
VNO [4]; [8]
  alpha cortical activity: increased alpha cortical

## C=C(C)C1CC=C(C)C(=O)C1 (centres unmarked) [1-carvone]
VNO [1]
  EVG response to olfactants delivered to the VNO: only a minor local response in the VNO; also recorded: do not induce a significant EVG response
[5]
  EOG local response of the OE: strong response in both men and women; also recorded: significant (p<0.01) local response

## C[C@@]12C=CC[C@H]1[C@@H]1C[C@@H](O)c3cc(O)ccc3[C@H]1CC2 [E12/N1, ESTRA-1,3,5(10),16-TETRAEN-3,6β-DIOL]
VNO [4]; men, FIGS. 22-34 A
  EEG-alpha activity: best EEG-alpha activity in men

## C[C@@]12C=CC[C@H]1[C@@H]1CCC3=CC(=O)CC[C@]3(C)[C@H]1CC2 [B, Androsta-4,16-dien-3-one, reference compound]
VNO [1]; 100 fmoles
  EVG response in the male VNO: significantly reduced responses
VNO [2]; [7]
  skin temperature (ST): significant increase in skin temperature
VNO [3]
  electrodermal activity (EDA): greater decrease in EDA than A or C
[5]
  EOG local response of the OE: only vomeropherin having significant effect in the OE; also recorded: significant (p<0.01) local response
VNO [4]; [8]
  alpha cortical activity: increased alpha cortical

## CC(=O)Oc1ccc2c(c1)CC[C@@H]1[C@@H]2CC[C@]2(C)C=CC[C@@H]12 [A, 1,3,5(10),16-Estratetraen-3-yl acetate]
VNO [1]; 100 fmoles
  EVG response in female subjects: small effect that was significantly different from F
VNO [1]; male subjects (ages 20 to 38), 100 fmoles, 1 second pulses, FIG. 6A
  EVG average response (mean): 11.4 mV
VNO [6]
  duration of change in autonomic function: up to 45 seconds
  time at which change in autonomic function was first noted: ≤ 2 s
VNO [6]; compared to propylene glycol control, FIG. 4A
  integrated receptor potential in the VNO: significant change
VNO [6]; compared to propylene glycol control, FIG. 4B
  galvanic skin response: significant change
VNO [6]; compared to propylene glycol control, FIG. 4C
  skin temperature: significant change
VNO [2]; 30 male subjects, p<0.01, FIG. 6G
  skin temperature (ST): significant increase in skin temperature
VNO [3]; male subjects, FIG. 6C
  skin resistance (electrodermal activity, EDA): decreased skin resistance
VNO [4]; males, 200 fmoles, air pulses 300 ms to 1 sec, FIG. 6E
  alpha cortical activity: significantly increased alpha cortical activity; also recorded: strongest effect

## C[C@@]12C=CC[C@H]1[C@@H]1CCC3=CC(=O)CC[C@]3(O)[C@H]1CC2 [E7/N1, 10-HYDROXYESTRA-4,16-DIEN-3-ONE]
VNO [1]; men, FIG. 21A
  organ response (EVG data): excellent organ response
VNO [1]; women, FIG. 20A
  organ response (EVG data): excellent organ response
VNO [4]; men, FIGS. 22-34 A
  EEG-beta activity: high EEG-betain men
VNO [4]; women, FIGS. 22-34 B
  EEG-alpha activity: best EEG-alpha activity in women; also recorded: high EEG-alpha in women

## COC1=CCC2=C(CC[C@@H]3[C@@H]2CC[C@]2(C)C=CC[C@@H]32)C1 [E8/N1, 3-METHOXYESTRA-2,5(10),16-TRIENE]
VNO [4]; men, FIGS. 22-34 A
  EEG-beta activity: best EEG-beta activity in men

## C[C@@]12C=CC[C@H]1[C@@H]1CCC3=C[C@H](O)CC[C@]3(C)[C@H]1CC2 [E, Androsta-4,16-dien-3α-ol]
VNO [1]; 100 fmoles
  EVG response in female subjects: does not stimulate the VNO in female subjects
[5]
  EOG local response of the OE: stronger olfactory effect than does F; also recorded: significant (p<0.01) local response

## CC12CCC(CC1)C(C)(C)O2 [cineole]
VNO [1]
  EVG response to olfactants delivered to the VNO: only a minor local response in the VNO; also recorded: do not induce a significant EVG response
[5]
  EOG local response of the OE: strong response in both men and women; also recorded: significant (p<0.01) local response
